In test [1] the test system is Guinea pig tracheal strip preparations. Kind of test: tissue or blood. The settings on record: for % Relaxation: % maximal of carbachol-induced tone, DRC to verapamil. As to the method: Again, guinea pig tracheal strip preparations were pre-contracted with 5×10^−6 M carbachol for 10 minutes before incubation with the pre-treatment drug. The relaxation (% maximal of carbachol-induced tone) induced by the pre-treatment is shown in FIG. 2, for the following groups.

The test system of another test is T lymphocytes. The settings on record: cited from earlier work.
For test [2] the following is noted: Frey's syndrome, single dermal application; cited from earlier work.
The conditions of test [3]: clinical level, compared with ipratropium; cited from earlier work.
The test system of test [4] is Guinea pig tracheal strip preparations. Put plainly: tissue or blood. The settings on record: Cavia porcellus, 5 min. The procedure: Guinea pig tracheal strip preparations were pre-contracted with 5×10^−6 M carbachol for 10 minutes, to induce tone, before incubation with drug. […] Relaxation is expressed as % maximal relaxation induced by 5×10^−4 M papaverine after completion of concentration-response curves. […]

Like-named read-outs stand apart in the source and are kept apart here.

For orientation: EC50 means the concentration needed to bring the measured effect to its halfway point.

For the compound `COc1ccc(CCN(C)CCCC(C#N)(c2ccc(OC)c(OC)c2)C(C)C)cc1OC` (centres unmarked) [verapamil], in test [1] (Cavia porcellus), the concentration giving a half-maximal response (EC50) is 5000 nM.

With `CN1[C@@H]2CC[C@H]1C[C@@H](OC(=O)C(CO)c1ccccc1)C2` (some centres unmarked) [atropine, Atropine], in the test on T lymphocytes, the “effect on acetylcholine-mediated enhanced T lymphocyte proliferation” value was “abolishes this effect completely”.

Consider `C[N+]1(C)CCC(OC(=O)C(O)(c2ccccc2)C2CCCC2)C1` (centres unmarked) [glycopyrrolate], for which, in test [2], the duration of action result is given as “two day”. Moreover, the “% Relaxation” value in test [1] (Group B, pre-treatment 4 × 10^−9 M) is 6.5 ± 0.8%; in test [1] (Group C, pre-treatment 4 × 10^−10 M), −0.7 ± 1.4%. In addition, the “duration of action in muscarinic antagonism” value in test [3] is recorded as “longer duration of action in muscarinic antagonism than ipratropium”. The half-maximal effective concentration (EC50) was 9.23 nM in test [4] and 9.12 nM in test [4] (read-out: -Log EC50 (converted)).

The record behind these values is US20040028734A1, “Use of anti-muscarinic agents and calcium channel blockers in combination” (priority 2000, published 2004).
